# Where two headings read alike, the source gives them in different places.
# Biological target: aggregated MBP-HTT(1-89)Q46-His(6×) (Exonl-Q46) protein (Q46 protein aggregates) (Homo sapiens (Human), UniProt P42858, INS38QQQQQQQQQQQQQQQQQQQQQQQQQ)
# Test: Q46 Radioligand Binding Assay
# Settings: read-out: Q46_RBA EC50_
# Protocol: Q46 Radioligand Binding Assay
# For radioligand binding assays (RBA) MBP-HTT(1-89)Q46-His(6×) (“Exonl-Q46”) protein was generated based on a previous publication (Scherzinger et al. Cell, Vol. 90, 549-558, Aug. 8, 1997). For experiments 30 μM MBP-Exonl-Q46 was incubated with 150 μg/mL thrombin in assay buffer (150 mM NaCl, 50 mM Tris pH 8.0) and 2 mM CaCl2 for 16 hours at 37° C. Aggregated Exonl-Q46 was pelleted by centrifugation for 5 minutes at 13,000 rpm in a bench top centrifuge and re-dissolved in the same volume of assay buffer. Test compounds were prepared by titration in DMSO at 11 concentrations from 63 μM to 2 nM. For the RBA, Q46 protein aggregates and test compounds were pre-incubated in assay buffer for 20 minutes at room temperature, in 100 μL/well in a 96-well plate (pp, round bottom). Then, ligand was added in 50 μL/well and incubated for 60 minutes at 37° C. Final assay concentrations were 1 μM to 30 μM test compound, 1 μM Exonl-Q46 protein (equivalent monomer concentration) and 0.3 nM ligand [^3H3-methyl]-5-((5-methoxypyridin-2-yl)methoxy)-2-(pyrazin-2-yl)benzo[d]oxazole. Samples were transferred onto GF/B filter plates and washed 2× with 200 μL PBS using a Filtermate Harvester. After drying filter plates for 1 hour at 55° C., the back of the plates were sealed with foil and 30 μL/well scintillation fluid (Packard MicroScint 40) added, incubated for 15 minutes in the dark and counted in a MicroBeta reader. For analysis, replicate data from independent assay plates were normalized towards 0% and 100% inhibition using control wells of vehicle (0% inhibition) and 1 μM unlabelled [^3H3-methyl]-5-((5-methoxypyridin-2-yl)methoxy)-2-(pyrazin-2-yl)benzo[d]oxazole (100% inhibition). IC50 values were determined with a sigmoidal inhibition model with four variables (top, bottom, slope, IC50) in a global fit using the normalized replicate data.
# [1] = displacement of 0.3 nM [3H3-methyl]-5-((5-methoxypyridin-2-yl)methoxy)-2-(pyrazin-2-yl)benzo[d]oxazole from 1 μM Exonl-Q46 aggregates, method calls the values IC50
# [2] = same radioligand displacement on Exonl-Q46 aggregates
# Sequence of aggregated MBP-HTT(1-89)Q46-His(6×) (Exonl-Q46) protein (Q46 protein aggregates) (P42858 other isoform, or with tags, fused parts or gaps, stated change not applied): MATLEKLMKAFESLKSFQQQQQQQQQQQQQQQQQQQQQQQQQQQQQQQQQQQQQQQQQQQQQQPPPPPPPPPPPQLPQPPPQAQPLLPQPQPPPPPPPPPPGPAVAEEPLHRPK
SMILES,EC50 [1],EC50 [2]
"Cn1cc(C(=O)N2CCc3ccc(OCc4ccc(O)cn4)cc3C2)ccc1=O [Example 40, 5-(7-((5-Hydroxypyridin-2-yl)methoxy)-1,2,3,4-tetrahydroisoquinoline-2-carbonyl)-1-methylpyridin-2(1H)-one]",333 nM,100 to 500 nM
"COc1ccc(COc2ccc3c(c2)CN(C(=O)c2ccc(=O)n(C)c2)CC3)nc1 [Example 41, 5-(7-((5-Methoxypyridin-2-yl)methoxy)-1,2,3,4-tetrahydroisoquin-oline-2-carbonyl)-1-methylpyridin-2(1H)-one]",23.5 nM,< 100 nM

# — patent publication US11992535B2, “Compounds and probes for imaging huntingtin protein” (CHDI Foundation, Inc., priority 2019, dated 2024)
